From ChEMBL document CHEMBL1156268, “Michael acceptor based antiplasmodial and antitrypanosomal cysteine protease inhibitors with unusual amino acids” (J Med Chem, 2010)
Active and inactive are the calls of the source. The calls are words filed in the database; no cut-off is given here. Residues, ends and D or L forms follow the SMILES beside them. *: point of attachment. X1 = O=C(/C=C/CO)*

Tests used:
Plasmodium falciparum [1] = test: Inhibition of Plasmodium falciparum recombinant falcipain-3 at 100 uM by standard fluorescence assay
[2] = biological target: Rhodesain (Trypanosoma brucei rhodesiense) (UniProt Q95PM0); test: Inhibition of Trypanosoma brucei rhodesiense recombinant rhodesain at 100 uM by standard fluorescence assay
Plasmodium falciparum [3] = test: Antiplasmodial activity against Plasmodium falciparum W2 at 100 uM by flow cytometry; assay type: functional
Plasmodium falciparum [4] = test: Inhibition of Plasmodium falciparum recombinant falcipain-2 at 100 uM by standard fluorescence assay
[5] = tested on: Trypanosoma brucei brucei; test: Antitrypanosomal activity against Trypanosoma brucei brucei at 100 uM; assay type: functional, organism-based
Plasmodium falciparum [6] = test: Antiplasmodial activity against Plasmodium falciparum W2 by flow cytometry; assay type: functional, organism-based
[7] = tested on: Trypanosoma brucei brucei; test: Antitrypanosomal activity against Trypanosoma brucei brucei; assay type: functional, organism-based
[8] = Inhibition of Plasmodium falciparum recombinant falcipain-2 using Cbz-Leu-Arg-AMC as substrate by standard fluorescence assay
[9] = Inhibition of Plasmodium falciparum recombinant falcipain-3 by standard fluorescence assay
[10] = Cytotoxicity against mouse J774.1 cells; assay type: cell-based
Rhodesain = Rhodesain (Trypanosoma brucei rhodesiense, UniProt Q95PM0); test: (§1) Inhibition of Trypanosoma brucei rhodesiense recombinant rhodesain by standard fluorescence assay
[11] = Selectivity index, ratio of IC50 for mouse J774.1 cells to IC50 for Trypanosoma brucei brucei; assay type: toxicity; conditions: J774.1 cells versus Trypanosoma brucei brucei, read-out: Ratio IC50
[12] = biological target: Rhodesain (Trypanosoma brucei rhodesiense) (UniProt Q95PM0); test: as §1; conditions: TDE = time-dependent effect
Plasmodium falciparum [13] = test: Antiplasmodial activity against Plasmodium falciparum FCBR by flow cytometry; assay type: functional, organism-based; conditions: FCBR/Columbia

Rhodesain, sequence (Q95PM0 whole entry): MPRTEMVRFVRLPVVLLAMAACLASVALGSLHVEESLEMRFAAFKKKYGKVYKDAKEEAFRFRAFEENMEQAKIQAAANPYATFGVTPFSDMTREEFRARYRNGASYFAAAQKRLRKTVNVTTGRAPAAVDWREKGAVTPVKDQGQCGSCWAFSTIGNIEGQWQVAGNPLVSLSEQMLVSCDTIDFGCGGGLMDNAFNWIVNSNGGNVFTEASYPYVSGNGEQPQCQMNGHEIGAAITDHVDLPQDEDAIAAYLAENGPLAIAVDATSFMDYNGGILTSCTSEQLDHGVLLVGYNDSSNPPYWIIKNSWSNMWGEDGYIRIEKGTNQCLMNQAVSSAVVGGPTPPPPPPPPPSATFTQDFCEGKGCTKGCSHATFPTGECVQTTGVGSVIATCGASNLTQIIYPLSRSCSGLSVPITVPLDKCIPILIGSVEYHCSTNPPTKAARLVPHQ
Rhodesain (Trypanosoma brucei rhodesiense), sequence (Q95PM0 1-450): as the sequence (Q95PM0 whole entry) above

Structure (SMILES) | inhibition (Plasmodium falciparum [1]) | inhibition [2] | inhibition (Plasmodium falciparum [3]) | inhibition (Plasmodium falciparum [4]) | inhibition [5] | IC50 (Plasmodium falciparum [6]) [µM] | IC50 [7] [µM] | Ki [8] [µM] | further results
CCOC(=O)/C=C/COC(=O)[C@H](CCC(N)=O)NC(=O)[C@H](CC(C)C)NC(=O)OC(C)(C)C | inactive | inactive | inactive | inactive | inactive | – | – | – | –
CCOC(=O)/C=C\C(=O)OC[C@H](Cc1ccccc1)NC(=O)OC(C)(C)C | inactive | – | – | – | – | 100 | 17 | 54.3 | –
CCOC(=O)/C=C/C(=O)O.CCOC(=O)/C=C/C(=O)OC[C@H](CCC(N)=O)NC(=O)OC(C)(C)C | inactive | inactive | inactive | inactive | inactive | – | – | – | –
CCOC(=O)/C=C/COC(=O)[C@H](CCC(N)=O)NC(=O)[C@H](CC(C)C)NC(=O)[C@H](C)NC(=O)OC(C)(C)C | – | inactive | – | – | inactive | 20.8 | – | 3.1 | Ki [9]: 23.9 µM
CCOC(=O)/C=C\CNC(=O)[C@@H](Cc1ccccc1)NC(=O)OC(C)(C)C | – | 47% | – | inactive | – | 43.1 | 29 | – | –
O=C(/C=C\C(=O)N[C@@H](Cc1ccccc1)C(=O)OCc1ccccc1)N[C@@H](Cc1ccccc1)C(=O)O | inactive | – | – | – | – | 100 | 2.9 | 10.2 | IC50 [10]: 31 µM; Ki (Rhodesain): 150 nM; selectivity ratio [11]: 10
CCOC(=O)/C=C/CCOC(=O)[C@H](Cc1ccccc1)NC(=O)OCc1ccccc1 | inactive | 36% | inactive | – | – | – | 19 | 29.1 | IC50 [10]: > 100 µM
CC(C)C[C@H](NC(=O)[C@H](C)NC(=O)[C@H](Cc1ccccc1)NC(=O)/C=C\C(=O)O)C(=O)OCc1ccccc1 | inactive | – | – | – | – | 14.6 | – | 10.5 | –
CCOC(=O)/C=C/C(=O)N[C@@H](CC(=O)NC(c1ccccc1)(c1ccccc1)c1ccccc1)C(=O)OC | inactive | 20% | – | – | – | 7.3 | 25.1 | 12 | –
CCOC(=O)/C=C/COC(=O)[C@H](CC(N)=O)NC(=O)[C@@H](NC(=O)OC(C)(C)C)C1CCCCC1 | inactive | inactive | – | inactive | inactive | 13.2 | – | – | –
CCOC(=O)/C=C/CN[C@@H](CC(N)=O)C(=O)OC(C)(C)C | inactive | inactive | inactive | inactive | inactive | – | – | – | –
C[C@H](NC(=O)[C@H](Cc1ccccc1)NC(=O)/C=C\C(=O)O)C(=O)OCc1ccccc1 | inactive | – | – | – | – | 50.3 | – | 25 | –
CCOC(=O)/C=C/COC(=O)[C@H](CC(N)=O)NC(=O)OC(C)(C)C | – | inactive | – | – | inactive | 34.8 | – | 17 | Ki [9]: 58 µM
O=C(O)/C=C/C(=O)N[C@@H](Cc1ccccc1)C(=O)OCc1ccccc1 | – | 11% | inactive | inactive | inactive | – | – | – | –
CCOC(=O)/C=C/N[C@@H](CC(N)=O)C(=O)OC(C)(C)C | inactive | inactive | inactive | inactive | inactive | – | – | – | –
CCOC(=O)/C=C/C(=O)N[C@@H](CC(N)=O)C(=O)OC(C)(C)C | inactive | inactive | inactive | inactive | inactive | – | – | – | –
CCOC(=O)/C=C/N[C@@H](CCC(N)=O)C(=O)OC(C)(C)C | inactive | inactive | inactive | inactive | inactive | – | – | – | –
O=C(/C=C/C(=O)N[C@@H](Cc1ccccc1)C(=O)OCc1ccccc1)N[C@@H](Cc1ccccc1)C(=O)OCc1ccccc1 | – | – | inactive | – | inactive | – | – | 0.98 | Ki [9]: 2.8 µM; Time-dependent inhibition (qualitative) [12]: tde; Ki (Rhodesain): 340 nM
CCOC(=O)/C=C/C(=O)O.CCOC(=O)/C=C/C(=O)OC[C@H](CC(N)=O)NC(=O)OC(C)(C)C | inactive | inactive | inactive | inactive | inactive | – | – | – | –
CCOC(=O)/C=C/COC(=O)[C@H](CC(N)=O)NC(=O)[C@H](CC(C)C)NC(=O)OC(C)(C)C | inactive | inactive | inactive | – | inactive | – | – | 25.1 | –

Structure (SMILES) | inhibition (Plasmodium falciparum [1]) | inhibition [2] | inhibition (Plasmodium falciparum [3]) | inhibition (Plasmodium falciparum [4]) | inhibition [5] | IC50 (Plasmodium falciparum [6]) [µM] | IC50 [7] [µM] | Ki [8] [µM] | further results
CCOC(=O)/C=C/CN[C@@H](Cc1ccccc1)C(=O)OCc1ccccc1 | inactive | inactive | inactive | – | – | – | 25 | 152 | IC50 [10]: 36.1 µM
CCOC(=O)/C=C\C(=O)N[C@@H](Cc1ccccc1)C(=O)N[C@@H](C)C(=O)N[C@@H](CC(C)C)C(=O)OCc1ccccc1 | – | 29% | – | – | – | 28.4 | 14.9 | 6.6 | Ki [9]: 36.8 µM; IC50 [10]: 29 µM
CC(C)C[C@H](NC(=O)[C@H](CCC(N)=O)NC(=O)/C=C/CO)C(=O)N[C@H](C(=O)N[C@H](C(N)=O)C(C)C)C(C)C (X1-QLVV-NH2) | – | inactive | – | 27% | – | – | – | – | –
CCOC(=O)/C=C\[C@H](Cc1ccccc1)NC(=O)OC(C)(C)C | – | inactive | – | – | inactive | 100 | – | 16.7 | Ki [9]: 198 µM
CCOC(=O)/C=C/C(=O)N[C@@H](CCC(N)=O)C(=O)OC(C)(C)C | inactive | inactive | – | inactive | inactive | 75.3 | – | – | –
CCOC(=O)/C=C\C(=O)N[C@@H](Cc1ccccc1)C(=O)N[C@@H](C)C(=O)OCc1ccccc1 | inactive | 43% | inactive | – | – | – | 2.7 | 25.1 | IC50 [10]: 3 µM
CCOC(=O)/C=C/OC[C@H](CCC(N)=O)NC(=O)OC(C)(C)C | inactive | inactive | inactive | inactive | inactive | – | – | – | –
C/C=C/C(=O)N[C@@H](Cc1ccccc1)C(=O)OCc1ccccc1 | inactive | inactive | inactive | – | – | – | 2.8 | 20.3 | IC50 [10]: 45.2 µM
CCOC(=O)/C=C/COC(=O)[C@H](CCC(N)=O)NC(=O)[C@@H](NC(=O)OC(C)(C)C)C1CCCCC1 | inactive | inactive | inactive | – | – | – | 32 | 25 | –
CCOC(=O)/C=C/C(=O)O.CCOC(=O)/C=C/C(=O)OC[C@H](CCC(N)=O)NC(=O)[C@@H](NC(=O)OC(C)(C)C)c1ccccc1 | – | 25% | – | inactive | – | – | 31.3 | – | –
CC(C)C[C@H](NC(=O)[C@H]1O[C@@H]1C(=O)O)C(=O)NCCCCN=C(N)N [E-64] | – | – | – | – | – | – | – | 0.025 | Ki [9]: 0.22 µM; IC50 (Plasmodium falciparum [13]): 3.2 µM
C[C@H](NC(=O)[C@H](Cc1ccccc1)NC(=O)/C=C\C(=O)N[C@@H](Cc1ccccc1)C(=O)OCc1ccccc1)C(=O)O | – | – | – | – | – | 8 | 2.2 | 3.8 | Ki [9]: 42.2 µM; IC50 [10]: 32 µM; Ki (Rhodesain): 1400 nM; selectivity ratio [11]: 10
CCOC(=O)/C=C/C(=O)O.CCOC(=O)/C=C/C(=O)OC[C@H](CC(N)=O)NC(=O)[C@@H](NC(=O)OC(C)(C)C)c1ccccc1 | – | 51% | – | 45% | – | – | 33.2 | – | IC50 (Plasmodium falciparum [13]): 21.7 µM
CCOC(=O)/C=C/C(=O)N[C@@H](CCC(=O)NC(c1ccccc1)(c1ccccc1)c1ccccc1)C(=O)OC | – | – | – | – | – | 4.7 | 31 | 3.3 | Ki [9]: 14.7 µM; Ki (Rhodesain): 1400 nM
CCOC(=O)/C=C/CN[C@@H](CCC(N)=O)C(=O)OC(C)(C)C | inactive | inactive | inactive | inactive | inactive | – | – | – | –
CCOC(=O)/C=C/C(=O)N[C@@H](Cc1ccccc1)C(=O)OCc1ccccc1 | – | – | inactive | – | – | – | 0.25 | 4.7 | Ki [9]: 65.9 µM; IC50 [10]: 3.5 µM; Ki (Rhodesain): 7600 nM; selectivity ratio [11]: 10
CCOC(=O)/C=C/COC(=O)[C@H](CCC(N)=O)NC(=O)OC(C)(C)C | inactive | inactive | inactive | – | inactive | – | – | 37.7 | –
CCOC(=O)/C=C\C(=O)N[C@@H](Cc1ccccc1)C(=O)OCc1ccccc1 | inactive | 15% | – | – | – | – | 8 | 26.1 | IC50 [10]: 3.3 µM; inhibition at 100 µM (Plasmodium falciparum [3]): 28%
O=C(O)/C=C\C(=O)N[C@@H](Cc1ccccc1)C(=O)OCc1ccccc1 | – | inactive | – | – | inactive | 100 | – | 7.6 | Ki [9]: 43 µM
